PubChem BioAssay AID256 (DTP/NCI, 2004)
Values joined by “and” are separate entries in the source; they are usually repeats but may differ in a detail not shown here. Identical values can stand only once. Inconclusive results and toxic doses are left out.

Test system: CD2F1 mice, L1210 leukemia ip, survival T/C
Assay: NCI In Vivo Anticancer Drug Screen. Data for tumor model L1210 Leukemia (intraperitoneal) in CD2F1 (CDF1) mice
Settings: higher = longer survival
How it was run: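 Read-out first: treated-group measurement over vehicle-control measurement, expressed as a ratio. Animals bore a transplanted tumor line and were dosed with compound or vehicle.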

[1] = endpoint: mean survival time, dose: 100.0 mg/kg/injection, schedule: Q04DX003 (ip), vehicle: saline with Tween-80

With Cc1ccccc1NCc1ccccc1 the T/C (endpoint: mean survival time, dose: 100.0 mg/kg/injection, schedule: Q04DX003 (ip), vehicle: other) was 101 % of control, the T/C (endpoint: mean survival time, dose: 200.0 mg/kg/injection, schedule: Q04DX003 (ip), vehicle: other) was 103 % of control and the T/C (endpoint: mean survival time, dose: 400.0 mg/kg/injection, schedule: Q04DX003 (ip), vehicle: other) was 100 % of control.

For c1ccc(C2=Nc3ccccc3C(c3ccccc3)=Nc3ccccc32)cc1, the T/C [1] was 109 % of control, the T/C (endpoint: mean survival time, dose: 200.0 mg/kg/injection, schedule: Q04DX003 (ip), vehicle: saline with Tween-80) was 91 % of control and the T/C (endpoint: mean survival time, dose: 400.0 mg/kg/injection, schedule: Q04DX003 (ip), vehicle: saline with Tween-80) was 101 % of control.

With FC(F)(F)c1ccc2c(c1)N(CCCN(CCCl)CCCl)c1ccccc1S2 the T/C (endpoint: mean survival time, dose: 18.0 mg/kg/injection, schedule: Q01DX001 (ip), vehicle: saline) was 100 % of control and the T/C (endpoint: mean survival time, dose: 28.0 mg/kg/injection, schedule: Q01DX001 (ip), vehicle: saline) was 111 % of control.

With Cn1cnc([N+](=O)[O-])c1[Se]c1nc(N)nc2c1ncn2C1OC(CO)C(O)C1O (configuration not stated) the T/C (endpoint: mean survival time, dose: 2.0 mg/kg/injection, schedule: Q01DX009 (ip), vehicle: distilled water + Tween-80) was 114 % of control, the T/C (endpoint: mean survival time, dose: 4.0 mg/kg/injection, schedule: Q01DX009 (ip), vehicle: distilled water + Tween-80) was 112 % of control and the T/C (endpoint: mean survival time, dose: 8.0 mg/kg/injection, schedule: Q01DX009 (ip), vehicle: distilled water + Tween-80) was 108 % of control and 110 % of control. The T/C (endpoint: mean survival time, dose: 12.5 mg/kg/injection, schedule: Q01DX005 (ip), vehicle: saline) was 166 % of control, the T/C (endpoint: mean survival time, dose: 25.0 mg/kg/injection, schedule: Q01DX005 (ip), vehicle: saline) was 175 % of control and the T/C (endpoint: mean survival time, dose: 50.0 mg/kg/injection, schedule: Q01DX005 (ip), vehicle: saline) was 176 % of control. For the same compound, the T/C (endpoint: mean survival time, dose: 64.0 mg/kg/injection, schedule: Q01DX009 (ip), vehicle: distilled water + Tween-80) was 98 % of control.

For COC1=CCC23C(=O)C=CC(=O)C2(C1)C(=O)c1ccccc1C3=O (configuration not stated), the T/C (endpoint: median survival time, dose: 3.12 mg/kg/injection, schedule: Q01DX009 (ip), vehicle: saline with Tween-80) was 102 % of control, the T/C (endpoint: median survival time, dose: 6.25 mg/kg/injection, schedule: Q01DX009 (ip), vehicle: saline with Tween-80) was 105 % of control and the T/C (endpoint: median survival time, dose: 12.5 mg/kg/injection, schedule: Q01DX009 (ip), vehicle: saline with Tween-80) was 112 % of control. For the same compound, the T/C (endpoint: median survival time, dose: 25.0 mg/kg/injection, schedule: Q01DX009 (ip), vehicle: saline with Tween-80) was 104 % of control.

For OCC(O)C(O)C(O)C(O)C(O)CO (configuration not stated), the T/C (endpoint: mean survival time, dose: 50.0 mg/kg/injection, schedule: Q01DX009 (ip), vehicle: Klucel (hydroxypropylcellulose) (HPC)) was 98 % of control, the T/C (endpoint: mean survival time, dose: 100.0 mg/kg/injection, schedule: Q01DX009 (ip), vehicle: Klucel (hydroxypropylcellulose) (HPC)) was 102 % of control and the T/C (endpoint: mean survival time, dose: 100.0 mg/kg/injection, schedule: Q01DX009 (ip), vehicle: saline) was 98 % of control. For the same compound, the T/C (endpoint: mean survival time, dose: 100.0 mg/kg/injection, schedule: Q04DX002 (ip), vehicle: saline) was 100 % of control, the T/C (endpoint: mean survival time, dose: 200.0 mg/kg/injection, schedule: Q01DX009 (ip), vehicle: Klucel (hydroxypropylcellulose) (HPC)) was 98 % of control and the T/C (endpoint: mean survival time, dose: 200.0 mg/kg/injection, schedule: Q01DX009 (ip), vehicle: saline) was 91 % of control. The T/C (endpoint: mean survival time, dose: 200.0 mg/kg/injection, schedule: Q04DX002 (ip), vehicle: saline) was 107 % of control, the T/C (endpoint: mean survival time, dose: 400.0 mg/kg/injection, schedule: Q01DX009 (ip), vehicle: saline) was 102 % of control and the T/C (endpoint: mean survival time, dose: 400.0 mg/kg/injection, schedule: Q04DX002 (ip), vehicle: saline) was 96 % of control.

With O=C(O)c1c(Sc2ccccc2)cccc1Sc1ccccc1 the T/C (endpoint: mean survival time, dose: 25.0 mg/kg/injection, schedule: Q04DX002 (ip), vehicle: saline with Tween-80) was 93 % of control, the T/C (endpoint: mean survival time, dose: 50.0 mg/kg/injection, schedule: Q04DX002 (ip), vehicle: saline with Tween-80) was 93 % of control and the T/C (endpoint: mean survival time, dose: 100.0 mg/kg/injection, schedule: Q01DX001 (ip), vehicle: saline with Tween-80) was 89 % of control. The T/C (endpoint: mean survival time, dose: 100.0 mg/kg/injection, schedule: Q04DX002 (ip), vehicle: saline with Tween-80) was 93 % of control, the T/C (endpoint: mean survival time, dose: 200.0 mg/kg/injection, schedule: Q01DX001 (ip), vehicle: saline with Tween-80) was 93 % of control and the T/C (endpoint: mean survival time, dose: 200.0 mg/kg/injection, schedule: Q04DX002 (ip), vehicle: saline with Tween-80) was 95 % of control. For the same compound, the T/C (endpoint: mean survival time, dose: 400.0 mg/kg/injection, schedule: Q01DX001 (ip), vehicle: saline with Tween-80) was 90 % of control and the T/C (endpoint: mean survival time, dose: 400.0 mg/kg/injection, schedule: Q04DX002 (ip), vehicle: saline with Tween-80) was 87 % of control.

In the case of O=C1OC2C3CC4C2OC(=O)C4C13 (configuration not stated), the T/C (endpoint: mean survival time, dose: 100.0 mg/kg/injection, schedule: Q01DX009 (ip), vehicle: saline with Tween-80) is reported as 102 % of control, the T/C (endpoint: mean survival time, dose: 200.0 mg/kg/injection, schedule: Q01DX009 (ip), vehicle: saline with Tween-80) is reported as 98 % of control and the T/C (endpoint: mean survival time, dose: 400.0 mg/kg/injection, schedule: Q01DX009 (ip), vehicle: saline with Tween-80) is reported as 90 % of control.

With Cc1cc2c(=O)[nH]cnc2[nH]1 the T/C (endpoint: median survival time, dose: 12.5 mg/kg/injection, schedule: Q01DX005 (ip), vehicle: saline with Tween-80) was 102 % of control, the T/C (endpoint: median survival time, dose: 25.0 mg/kg/injection, schedule: Q01DX005 (ip), vehicle: saline with Tween-80) was 100 % of control and the T/C (endpoint: median survival time, dose: 50.0 mg/kg/injection, schedule: Q01DX005 (ip), vehicle: saline with Tween-80) was 101 % of control. For the same compound, the T/C (endpoint: median survival time, dose: 50.0 mg/kg/injection, schedule: Q01DX005 (ip), vehicle: saline) was 102 % of control and the T/C (endpoint: median survival time, dose: 100.0 mg/kg/injection, schedule: Q01DX005 (ip), vehicle: saline) was 90 % of control.

In the case of CSC(=S)N/N=C(\C)c1ccccn1, the T/C (endpoint: mean survival time, dose: 25.0 mg/kg/injection, schedule: Q04DX003 (ip), vehicle: saline with Tween-80) is reported as 98 % of control, the T/C (endpoint: mean survival time, dose: 50.0 mg/kg/injection, schedule: Q04DX003 (ip), vehicle: saline with Tween-80) is reported as 107 % of control and the T/C [1] is reported as 110 % of control.
